# Results from US20110152267A1, “Compositions and Methods for Treating Hyperproliferative Disorders” (Texas Tech University System, priority 2009, published 2011).
# Columns and labels:
# Type in all cases: cell-based, human
# [1] = tested on: HT-29 colorectal adenocarcinoma cell line; experiment: DIMSCAN cytotoxicity, fenretinide + L-threo-sphinganines 3:1 (Example B10); conditions: 96 h
# Method in brief: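 HT-29 cells exposed 96 h at 37° C to fenretinide and L-threo-sphinganines alone or at 3:1 fenretinide:sphinganine, 12 wells per concentration. Viable cells quantified by DIMSCAN (fluorescein diacetate, eosin Y quench); survival fraction versus vehicle controls, combinations assessed by Chou-Talalay combination index.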
# [2] = tested on: PC-3 prostate adenocarcinoma cell line; experiment: DIMSCAN cytotoxicity, fenretinide + L-threo-sphinganines 3:1 (Example B17)
# Method in brief: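 PC-3 cells were treated for 96 h at 37 °C with fenretinide plus L-threo-sphinganines at a 3:1 ratio, 12 wells per concentration. Viable cells were measured by DIMSCAN (fluorescein diacetate with eosin Y quenching) and expressed as survival fraction versus vehicle. Combination index was derived by Chou-Talalay analysis.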
# [3] = tested on: T98G Glioblastoma multiforme cell line; experiment: DIMSCAN cytotoxicity, fenretinide + L-threo-sphinganines 3:1 (Example B6); conditions: 96 h
# Method in brief: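 T98G cells (2000–10,000/well) attached overnight, then exposed 96 h at 37° C. to fenretinide and L-threo-sphinganines alone or at 3:1 fenretinide:sphinganine, 12 wells per concentration. Viable cells quantified by fluorescein diacetate (8 microgram/mL)/eosin Y digital imaging microscopy as survival fraction versus vehicle; synergy by Chou-Talalay Combination Index.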
# [4] = tested on: A-2058 melanoma cell line; experiment: DIMSCAN cytotoxicity, fenretinide + L-threo-sphinganines 3:1 (Example B11); conditions: 96 h
# Method in brief: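 A-2058 human melanoma cells plated at 2000–10,000/well, attached overnight, then exposed 96 h at 37 °C to fenretinide and L-threo-sphinganines alone or at 3:1 fenretinide:sphinganine. Viable cells quantified by DIMSCAN (fluorescein diacetate 8 µg/mL, eosin Y quench); survival fraction vs vehicle controls; synergy by Chou-Talalay combination index.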
# [5] = tested on: RPMI-8226 Multiple Myeloma cell line; experiment: DIMSCAN cytotoxicity, fenretinide + L-threo-sphinganines 3:1 (Example B2); conditions: 96 h
# Method in brief: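 Fenretinide and L-threo-sphinganines tested alone and at 3:1 fenretinide:sphinganine on RPMI-8226 cells, 12 wells per concentration, 96 h at 37° C. Viable cells quantified by fluorescein diacetate (8 microgram/mL) fluorescence with eosin Y quenching; survival fraction versus vehicle controls, synergy by Chou-Talalay combination index.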
# [6] = tested on: SJ-G2 Glioblastoma cell line; experiment: DIMSCAN cytotoxicity, fenretinide + L-threo-sphinganines 3:1 (Example B8); conditions: 96 h
# Method in brief: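 SJ-G2 glioblastoma cells were exposed for 96 h at 37 °C to fenretinide and L-threo-sphinganines, alone and at a 3:1 fenretinide:sphinganine ratio, with 12 wells per concentration. Viable cells were measured by DIMSCAN (fluorescein diacetate uptake with eosin Y quench), giving survival fraction versus vehicle. Combination interaction was assessed by Chou-Talalay combination index.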
# [7] = tested on: A-549 lung adenocarcinoma cell line; experiment: DIMSCAN cytotoxicity, fenretinide + L-threo-sphinganines 3:1 (Example B13); conditions: 96 h
# Method in brief: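 A-549 cells attached overnight, then exposed 96 h at 37 °C to fenretinide and L-threo-sphinganines alone or at 3:1 fenretinide:sphinganine. Viability via fluorescein diacetate with eosin Y quench, digital imaging microscopy; survival fraction versus vehicle wells, with Chou-Talalay combination index (CI<0.9 synergy).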
# [8] = tested on: U-118 Glioblastoma cell line; experiment: DIMSCAN cytotoxicity, fenretinide + L-threo-sphinganines 3:1 (Example B5); parameters: key to CI (Combination Index): CI<0.9 synergy, 0.9-1.1 additive, >1.1 antagonistic; conditions: U-118 MG, 96 h
# Method in brief: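 U-118 cells plated at 2000–10,000/well, attached overnight, then given fenretinide and L-threo-sphinganines alone or at 3:1 fenretinide:sphinganine for 96 h at 37 °C/5% CO2. Viable cells quantified by DIMSCAN (fluorescein diacetate, eosin Y quench) as survival fraction versus vehicle; synergy by Chou-Talalay combination index.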
# [9] = 4-HPR 1.5 μM + L-threo-sphinganine 0.5 μM
# [10] = 4-HPR 3 μM + L-threo-sphinganine 1 μM
# [11] = 4-HPR 6 μM + L-threo-sphinganine 2 μM
# [12] = 4-HPR 9 μM + L-threo-sphinganine 3 μM
structure (smiles),measurement,setting,value
CCCCCCCCC[C@H](O)[C@@H](N)CO [C12],CI (Combination Index),[1]; [9],1.0
same,Fa (fraction affected),[1]; [9],0.217
same,CI (Combination Index),[1]; [10],1.2
same,Fa (fraction affected),[1]; [10],0.642
same,CI (Combination Index),[1]; [11],1.3
same,Fa (fraction affected),[1]; [11],0.951
same,CI (Combination Index),[1]; [12],1.6
same,Fa (fraction affected),[1]; [12],0.975
same,CI,[2]; [9],0.5
same,Fa,[2]; [9],0.245
same,CI,[2]; [10],0.8
same,Fa,[2]; [10],0.328
same,CI,[2]; [11],0.9
same,Fa,[2]; [11],0.526
same,CI,[2]; [12],0.8
same,Fa,[2]; [12],0.721
same,CI (Combination Index),[3]; [9],2.8
same,Fa (fraction affected),[3]; [9],0.306
same,CI (Combination Index),[3]; [10],3.6
same,Fa (fraction affected),[3]; [10],0.408
same,CI (Combination Index),[3]; [11],1.5
same,Fa (fraction affected),[3]; [11],0.781
same,CI (Combination Index),[3]; [12],0.2
same,Fa (fraction affected),[3]; [12],0.981
same,CI (Combination Index),[4]; [9],0.3
same,Fa (fraction affected),[4]; [9],0.244
same,CI (Combination Index),[4]; [10],0.6
same,Fa (fraction affected),[4]; [10],0.247
same,CI (Combination Index),[4]; [11],0.9
same,Fa (fraction affected),[4]; [11],0.518
same,CI (Combination Index),[4]; [12],1.0
same,Fa (fraction affected),[4]; [12],0.854
same,CI (Combination Index),[5]; [9],0.8
same,Fa (fraction affected),[5]; [9],0.6
same,CI (Combination Index),[5]; [10],1.0
same,Fa (fraction affected),[5]; [10],0.757
same,CI (Combination Index),[5]; [11],0.7
same,Fa (fraction affected),[5]; [11],0.96
same,CI (Combination Index),[5]; [12],0.5
same,Fa (fraction affected),[5]; [12],0.988
same,CI (Combination Index),[6]; [9],0.8
same,Fa (fraction affected),[6]; [9],0.199
same,CI (Combination Index),[6]; [10],0.7
same,Fa (fraction affected),[6]; [10],0.530
same,CI (Combination Index),[6]; [11],0.8
same,Fa (fraction affected),[6]; [11],0.764
same,CI (Combination Index),[6]; [12],0.6
same,Fa (fraction affected),[6]; [12],0.931
same,CI (Combination Index),[7]; [9],2.5
same,Fa (fraction affected),[7]; [9],0.01
same,CI (Combination Index),[7]; [10],1.0
same,Fa (fraction affected),[7]; [10],0.010
same,CI (Combination Index),[7]; [11],1.0
same,Fa (fraction affected),[7]; [11],0.010
same,CI (Combination Index),[7]; [12],1.0
same,Fa (fraction affected),[7]; [12],0.020
same,CI (Combination Index),[8]; [9],1.5
same,Fa (fraction affected),[8]; [9],0.226
same,CI (Combination Index),[8]; [10],1.0
same,Fa (fraction affected),[8]; [10],0.671
same,CI (Combination Index),[8]; [11],0.3
same,Fa (fraction affected),[8]; [11],0.988
same,CI (Combination Index),[8]; [12],0.2
same,Fa (fraction affected),[8]; [12],0.996
